# Tests used:
# MCF7 = assay: Growth inhibition of human MCF7 cells after 72 hrs by MTT assay; type: functional, cell-based; details: MCF7, 72 h
# MDA-MB-231 [1] = assay: Antimigratory activity against human MDA-MB-231 cells after 24 hrs by wound-healing assay; type: functional, cell-based; details: MDA-MB-231, 24 h
# MDA-MB-231 [2] = assay: Growth inhibition of human MDA-MB-231 cells after 72 hrs by MTT assay; type: functional, cell-based; details: MDA-MB-231, 72 h
# MDA-MB-231 [3] = assay: Cytotoxicity against human MDA-MB-231 cells assessed as growth inhibition after 24 hrs by MTT assay; type: cell-based; details: MDA-MB-231, 24 h
SMILES,IC50 (MCF7),IC50 (MDA-MB-231 [1]),IC50 (MDA-MB-231 [2]),IC50 (MDA-MB-231 [3])
CCOC(CCN1COc2c([C@@H](C)CCC=C(C)C)ccc(C)c2C1)OCC,13.2 µM,3.1 µM,11.3 µM,> 20 µM
CCOC(CCNCc1c(C)ccc([C@@H](C)CCC=C(C)C)c1O)OCC,10.3 µM,> 20 µM,14.9 µM,> 20 µM

# From ChEMBL document CHEMBL3390836, “Mannich- and LedererManasse-based analogues of the natural product S-(+)-curcuphenol as cancer proliferation and migration inhibitors” (Medchemcomm, 2012)
